Reference: US6589970B2, “6-(aryl-amido or aryl-amidomethyl)-naphthalen-2-yloxy-acidic derivatives as inhibitors of plasminogen activator inhibitor type-1 (PAI-1)” (Wyeth, priority 2001, dated 2003)
Structures can show the parent of a compound that is named as a salt. Values belong to the compound of their own block, whether it stands above or below them.

Legend:
[1] = target: T1, recombinant human plasminogen activator inhibitor-1 (PAI-1) (Homo sapiens, UniProt P05121); assay: Primary Screen for the PAI-1 Inhibition; assay type: biochemical; conditions: for inhibition at 25 µM: 25 μM test compound, read-out: % Inhib. 25 μM; for inhibition at 100 µM: 100 μM test compound, read-out: % Inhib. 100 μM
T1 construct: purchased Molecular Innovations, Royal Oak, Mich
Method in brief: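 Compound (1-100 μM final, ≤0.2% DMSO) was preincubated for 1 h at room temperature with 140 nM recombinant human PAI-1 at pH 6.6. tPA was then added at 70 nM for 30 min. Residual tPA activity was measured with Spectrozyme-tPA (A405 at 0 and 60 min) and taken as relative PAI-1 inhibition.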

[2] = target: T1, recombinant human plasminogen activator inhibitor-1 (PAI-1); assay: Modification of the Primary Screen for the PAI-1 Inhibition (IC50); assay type: biochemical
Experimental: Test compounds are dissolved in DMSO at a final concentration of 10 mM, then diluted 100× in physiologic buffer. The inhibitory assay is initiated by the addition of the test compound (1-100 μM final concentration, maximum DMSO concentration of 0.2%) in a pH 6.6 buffer containing 140 nM recombinant human plasminogen activator inhibitor-1 (PAI-1; Molecular Innovations, Royal Oak, Mich.). Following a 1 hour incubation at room temperature, 70 nM of recombinant human tissue plasminogen activator (tPA) is added, and the combination of the test compound, PAI-1 and tPA is incubated for an additional 30 minutes. Following the second incubation, Spectrozyme-tPA (American Diagnostica, Greenwich, Conn.), a chromogenic substrate for tPA, is added and absorbance read at 405 nm at 0 and 60 minutes. Relative PAI-1 inhibition is equal to the residual tPA activity in the presence of the test compound and PAI-1. Control treatments include the complete inhibition of tPA by PAI-1 at the molar ratio employed (2:1), and the absence of any effect of the test compound on tPA alone.

human PAI-1 = human PAI-1 (Homo sapiens, UniProt P05121); assay: Assay for Determining IC50 of Inhibition of PAI-1 (Antibody Assay); assay type: biochemical; conditions: active PAI-1 bound to tPA-coated plate
Experimental: This assay is based upon the non-SDS dissociable interaction between tPA and active PAI-1. Assay plates are initially coated with human tPA (10 μg/ml). The test compounds are dissolved in DMSO at 10 mM, then diluted with physiologic buffer (pH 7.5) to a final concentration of 1-50 μM. The test compounds are incubated with human PAI-1 (50 ng/ml) for 15 minutes at room temperature. The tPA-coated plate is washed with a solution of 0.05% Tween 20 and 0.1% BSA, then the plate is blocked with a solution of 3% BSA. An aliquot of the test compound/PAI-1 solution is then added to the tPA-coated plate, incubated at room temperature for 1 hour, and washed. Active PAI-1 bound to the plate is assessed by adding an aliquot of a 1:1000 dilution of the 33B8 monoclonal antibody against human PAI-1, and incubating the plate at room temperature for 1 hour (Molecular Innovations, Royal Oak, Mich. The plate is again washed, and a solution of goat anti-mouse IgG-alkaline phosphatase conjugate is added at a 1:50,000 dilution in goat serum. The plate is incubated 30 minutes at room temperature, washed, and a solution of alkaline phosphatase substrate is added. The plate is incubated 45 minutes at room temperature, and color development is determined at OD405nm. The quantitation of active PAI-1 bound to tPA at varying concentrations of the test compound is used to determine the IC50. Results are analyzed using a logarithmic best-fit equation. The assay sensitivity is 5 ng/ml of human PAI-1 as determined from a standard curve ranging from 0-100 ng/ml.

human PAI-1, sequence (P05121 24-402): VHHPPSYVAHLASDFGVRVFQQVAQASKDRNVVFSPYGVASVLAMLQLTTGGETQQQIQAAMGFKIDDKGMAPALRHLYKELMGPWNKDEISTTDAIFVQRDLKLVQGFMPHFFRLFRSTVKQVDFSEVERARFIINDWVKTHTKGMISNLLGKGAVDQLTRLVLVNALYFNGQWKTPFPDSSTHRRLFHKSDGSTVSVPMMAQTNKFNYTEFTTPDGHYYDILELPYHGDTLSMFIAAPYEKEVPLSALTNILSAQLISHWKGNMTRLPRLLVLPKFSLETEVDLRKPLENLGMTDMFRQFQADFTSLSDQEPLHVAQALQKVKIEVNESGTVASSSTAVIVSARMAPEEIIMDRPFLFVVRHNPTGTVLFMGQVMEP
T1 sequence (P05121 24-402): as above

Compound: CCCCc1oc2ccccc2c1C(=O)NCc1ccc2c(Br)c(OCc3nnn[nH]3)ccc2c1.[Na] [Example 17, 2-Butyl-benzofuran-3-carboxylic acid [5-bromo-6-(1H-tetrazol-5-ylmethoxy)-naphthalen-2-ylmethyl]-amide sodium salt]
IC50 (human PAI-1): 16.1 µM
inhibition at 100 µM [1]: 80%
IC50 [2]: 1.4 µM
melting point: 214 to 215 °C

Compound: CCCCc1oc2ccccc2c1C(=O)NCc1ccc2c(-c3ccc(OC)cc3)c(OCc3nnn[nH]3)ccc2c1 [Example 25, 2-Butyl-benzofuran-3-carboxylic [5-(4-methoxy phenyl)-6-(1H-tetrazol-5-ylmethoxy)-naphthalen-2-ylmethyl]-amide, sodium salt]
inhibition at 25 µM [1]: 3%
inhibition at 100 µM [1]: 94%
IC50 [2]: 4.6 µM

Compound: CCCCc1oc2ccccc2c1C(=O)NCc1ccc2c(-c3ccc(Cl)cc3)c(OCc3nnn[nH]3)ccc2c1 [Example 26, 2-Butyl-benzofuran-3-carboxylic acid [5-(4-chloro-phenyl)-6-(1-tetrazol-5-ylmethoxy)-naphthalen-2-ylmethyl]-amide]
inhibition at 25 µM [1]: 20%
inhibition at 100 µM [1]: 98%
IC50 [2]: 4.3 µM
melting point: 208 to 211 °C

Compound: CCCCc1oc2ccccc2c1C(=O)N(C)Cc1ccc2c(Br)c(OCc3nnn[nH]3)ccc2c1 [Example 31, 2-Butyl-benzofuran-3-carboxylic acid [5-bromo-6-(1H-tetrazol-5-ylmethoxy)-naphthalen-2-ylmethyl]-methyl-amide]
IC50 (human PAI-1): 8.47 µM
inhibition at 25 µM [1]: 62%
inhibition at 100 µM [1]: 95%
IC50 [2]: 15.6 µM
melting point: 190 to 194 °C

Compound: O=C(NCc1ccc2c(Br)c(OC(Cc3ccccc3)C(=O)O)ccc2c1)c1ccc(Oc2cc(Cl)cc(Cl)c2)o1 (stereo not drawn) [Example 53, 2-[1-Bromo-6-({[5-(3,5-dichloro-phenoxy)-furan-2-carbonyl]-amino}-methyl)-naphthalen-2-yloxy]-3-phenyl-propionic acid]
IC50 (human PAI-1): 8.12 µM
inhibition at 25 µM [1]: 35%
inhibition at 100 µM [1]: 86%
IC50 [2]: 8.7 µM
melting point: 86 to 100 °C

Compound: O=C(NCc1ccc2c(Br)c(OC(Cc3ccccc3)C(=O)O)ccc2c1)c1ccc(C2CCCCC2)cc1 (stereo not drawn) [Example 55]
IC50 (human PAI-1): 16.8 µM
inhibition at 25 µM [1]: 35%
inhibition at 100 µM [1]: 60%
IC50 [2]: 11.8 µM

Compound: O=C(NCc1ccc2c(Br)c(OC(Cc3ccccc3)C(=O)O)ccc2c1)c1cccc(Oc2ccccc2)c1 (stereo not drawn) [Example 57, 2-{1-Bromo-6-[(3-phenoxy-benzoylamino)-methyl]-naphthalen-2-yloxy}-3-phenyl-propionic acid]
inhibition at 25 µM [1]: 24%
inhibition at 100 µM [1]: 98%
IC50 [2]: 5.5 µM

Compound: O=C(O)COc1ccc2cc(CNC(=O)c3cc(-c4ccccc4Cl)oc3C(F)(F)F)ccc2c1 [Example 81, [6-({[5-(2-Chloro-phenyl)-2-trifluoromethyl-furan-3-carbonyl]-amino}-methyl)-naphthalen-2-yloxy]-acetic acid]
inhibition at 25 µM [1]: 12%
inhibition at 100 µM [1]: 78%
IC50 [2]: 36.5 µM

More lines, in order of falling IC50 [2], values ahead:

IC50 (human PAI-1): 17.5 µM
inhibition at 25 µM [1]: 48%
inhibition at 100 µM [1]: 85%
IC50 [2]: 20.9 µM
Compound: CCCCc1oc2ccccc2c1C(=O)N(Cc1ccccc1)Cc1ccc2c(Br)c(OCc3nnn[nH]3)ccc2c1 [Example 48, 2-Butyl-benzofuran-3-carboxylic acid benzyl-[5-bromo-6-(1H-tetrazol-5-ylmethoxy)-naphthalen-2-ylmethyl]-amide]

inhibition at 25 µM [1]: 22%
inhibition at 100 µM [1]: 100%
IC50 [2]: 20.2 µM
melting point: 180 to 183 °C
Compound: CCCCc1oc2ccccc2c1C(=O)NCc1ccc2c(-c3ccccc3)c(OCC(=O)O)ccc2c1 [Example 28, (6-{[(2-Butyl-benzofuran-3-carbonyl)-amino]-methyl}-1-phenyl-naphthanen-2-yloxy)-acetic acid]

inhibition at 25 µM [1]: 18%
inhibition at 100 µM [1]: 80%
IC50 [2]: 11.8 µM
Compound: CCCc1c(C(=O)NCc2ccc3c(Br)c(OC(Cc4ccccc4)C(=O)O)ccc3c2)cnn1-c1ccccc1 (stereo not drawn) [Example 54, 2-(1-Bromo-6-{[(1-phenyl-5-propyl-1H-pyrazole-4-carbonyl)-amino]-methyl}-naphthalen-2-yloxy)-3-phenyl-propionic acid]

IC50 (human PAI-1): 16.8 µM
inhibition at 25 µM [1]: 25%
inhibition at 100 µM [1]: 72%
IC50 [2]: 9.94 µM
melting point: 192 to 196 °C
Compound: CCCCc1oc2ccccc2c1C(=O)NCc1ccc2c(-c3ccccc3)c(OCc3nnn[nH]3)ccc2c1 [Example 24, 2-Butyl-benzofuran-3-carboxylic acid [5-phenyl-6-(1H-tetrazol-5-ylmethoxy)-naphthalen-2-ylmethyl]-amide]

inhibition at 25 µM [1]: 23%
inhibition at 100 µM [1]: 100%
IC50 [2]: 8.5 µM
Compound: CCCCc1oc2ccccc2c1C(=O)NCc1ccc2c(-c3ccc(Cl)cc3)c(OC(Cc3ccccc3)C(=O)O)ccc2c1 (stereo not drawn) [Example 29, 2-[6-{[(2-Butyl-benzofuran-3-carbonyl)-amino]-methyl}-1-(4-chloro-phenyl)-naphthalen-2-yloxy]-3-phenyl-propionic acid]

IC50 (human PAI-1): 16.6 µM
inhibition at 25 µM [1]: 64%
inhibition at 100 µM [1]: 83%
IC50 [2]: 7.8 µM
Compound: CCCCc1oc2ccccc2c1C(=O)Nc1ccc2c(Br)c(OC(Cc3ccccc3)C(=O)O)ccc2c1 (stereo not drawn) [Example 7, 2-{1-Bromo-6-[(2-butyl-benzofuran-3-carbonyl)-amino]-naphthalen-2-yloxy}-3-phenyl-propionic acid]

IC50 (human PAI-1): 18.7 µM
inhibition at 25 µM [1]: 69%
inhibition at 100 µM [1]: 91%
IC50 [2]: 6.9 µM
Compound: CCCCc1oc2ccccc2c1C(=O)N(CCCC)Cc1ccc2c(Br)c(OCc3nnn[nH]3)ccc2c1 [Example 51, 2-Butyl-benzofuran-3-carboxylic acid [5-bromo-6-(1H-tetrazol-5-ylmethoxy)-naphthalen-2-ylmethyl]-butyl-amide]

inhibition at 25 µM [1]: 38%
inhibition at 100 µM [1]: 75%
IC50 [2]: 3.2 µM
melting point: 194 to 198 °C
Compound: CCCCc1oc2ccccc2c1C(=O)Nc1ccc2cc(OCc3nn[nH]n3)ccc2c1 [Example 3, 2-Butyl-benzofuran-3-carboxylic acid [6-(2H-tetrazol-5-ylmethoxy)-naphthalen-2-yl]-amide]

inhibition at 25 µM [1]: 84%
inhibition at 100 µM [1]: 100%
IC50 [2]: 1.9 µM
melting point: 160 to 163 °C
Compound: CC(C)(C)c1cc(C(=O)NCc2ccc3c(Br)c(OC(Cc4ccccc4)C(=O)O)ccc3c2)cc(C(C)(C)C)c1 (stereo not drawn) [Example 56, 2-{1-Bromo-6-[(3,5-di-tert-butyl-benzoylamino)-methyl]-naphthalen-2-yloxy}-3-phenyl-propionic acid]
